In brackets after ≈: the same amount, converted by molar mass. Several values for one entry are separate records, joined by “and”; a condition that tells them apart may be missing. Equal entries are not always repeated. Where two headings read alike, the source gives them in different places.
Assays:
[1] = tested on: Streptococcus pyogenes; experiment: MIC by broth microdilution (CLSI); format: cell-based
[2] = target: PBP3 (Staphylococcus aureus, UniProt Q9XDB3); experiment: PBP binding, bocillin competition fluorescence gel assay; conditions: dose-dependent
Procedure: (§1) Using the genome of S. aureus USA300 as a template, PCR was performed to amplify PBP1, PBP2, PBP3, PBP4, and PBP2a genes with primers designed according to Table 1. Then, the amplified fragments were treated with BamHI/XhoI and then inserted into the cloning site of the BamHI/XhoI-digested pET28a to yield pET28a-PBP1, pET28a-PBP2, pET28a-PBP3, pET28a-PBP4, and pET28a-PBP2a, respectively. The plasmid was transformed into E. coli BL21(DE3) and cultured in LB medium containing Kan resistance until the OD600 reached 0.6, and PBP expression was induced overnight at 16°C by adding 0.5 mM IPTG (isopropyl-β-D-thiogalactopyranoside). The bacteria were then lysed by sonication, the […] was collected, and the proteins were purified using a HIS-Select nickel affinity gel system (Beyotime, Shanghai, China).
(§2) PBP binding assays were performed as previously described ([30], [31]). Selective labeling of PBP from preincubated samples ([…] protein) with various concentrations of WYBQ-4 was performed for 15 min, and then 25 μM BOCILLIN FL (Invitrogen) was added, followed by an additional 10 min at 37°C. Proteins were separated by SDS-PAGE, and the PBPs were detected by a gel fluorescence imaging instrument (excitation, 488 nm; emission, 530 nm).

[3] = target: PBP2a (Staphylococcus aureus, UniProt Q53707); experiment: as above
Procedure: as §1, §2

[4] = target: PBP1 (Staphylococcus aureus, UniProt Q53725); experiment: as above; conditions: dose-dependent
Procedure: as §1, §2

[5] = target: PBP4 (Staphylococcus aureus, UniProt P72355); experiment: as above; conditions: dose-dependent
Procedure: as §1, §2

[6] = target: PBP2 (Staphylococcus aureus, UniProt Q9R744); experiment: as above
Procedure: as §1, §2

[7] = tested on: MSSA 29213; experiment: Mouse intramuscular (thigh) infection model; format: in vivo; conditions: MSSA 29213-infected mice; 300 mg/kg subcutaneous; 24 h after infection
Procedure: (§3) The therapeutic effects of WYBQ-4 on thigh infections induced by MRSA USA300 and MSSA 29213 in mice (6-week-old female C57BL/6J mice) were evaluated. […] Mice were infected by intramuscular injection of 0.1 mL of S. aureus culture (5 × 10^5 CFU) into the right thigh. […] Then, 24 h after infection, mice were euthanized, and the right thighs were aseptically removed, weighed, homogenized, and applied to nonresistant BHI plates for CFU counting.

[8] = tested on: MRSA USA300; experiment: Mouse intramuscular (thigh) infection model; format: in vivo; conditions: MRSA USA300-infected mice; 300 mg/kg subcutaneous; 24 h after infection
Procedure: as §3

[9] = tested on: rabbit red blood cells; experiment: Hemolytic activity; format: cell-based; conditions: 0 to 512 μg/mL
[10] = tested on: MSSA 29213; experiment: Time-kill curve; format: cell-based, Staphylococcus aureus; conditions: 4× MIC, at 9 h
Procedure: (§4) The bactericidal activities of WYBQ-4 against MSSA 29213 and MRSA USA300 were determined in vitro. Overnight cultures were diluted to 10^6 CFU (CFU)/mL in 10 mL of fresh Mueller-Hinton broth (MHB) medium. […] After incubation at 37°C with shaking for 0 to 24 h, 100-μL samples from each time point were subcultured on MHB agar plates and incubated at 37°C for 24 h. MSSA 29213 and MRSA USA300 without WYBQ-4 were used as control groups. Colony numbers were counted to calculate the CFU, and the data were expressed as log10 CFU. Three biological replicates were performed for the experiment.

[11] = tested on: MRSA USA300; experiment: Time-kill curve; format: cell-based, Staphylococcus aureus; conditions: 8× MIC, at 9 h
Procedure: as §4

[12] = tested on: MRSA USA300; experiment: TEM analysis of cell morphology / division defects; format: cell-based, Staphylococcus aureus; conditions: 4 μg/mL (1/2× MIC), 3 h
Procedure: MRSA USA300 was cultured overnight, diluted (1:100) into 20 mL of Trypticase soy broth (TSB) medium, and incubated at 30°C with shaking until the optical density at 600 nm (OD600) reached 0.3. […] Bacterial cells treated with 4 μg/mL ceftaroline fosamil (1/2 of their respective MIC) served as a control group. Untreated S. aureus served as a negative control. Bacteria were collected and washed in PBS and resuspended in 4% (vol/vol) glutaraldehyde fixation overnight. The fixed samples were further processed, and morphological changes in S. aureus were observed by TEM (JSM-7900F; JEOL, Japan).

[13] = tested on: HEK-293T cells; experiment: Cytotoxicity assay (cell viability); format: cell-based
Procedure: (§5) Cytotoxicity assay. The cytotoxicity of WYBQ-4 against A549, HEK-293T, or HepG2 cells was evaluated with a cell counting kit-8 kit (CCK8; US Everbright, Suzhou, China) according to the manufacturer’s instructions ([41]). In brief, 5 × 10^4 cells were seeded in 96-well plates containing prewarmed medium (100 μL) and incubated for 24 h at 37°C in 5% CO2. Then, various concentrations of WYBQ-4 (0 to 512 μg/mL) were added and further incubated for 24 h. Afterward, the cells were incubated with 100 μL of medium with 10 μL of CCK8 solution (Sigma-Aldrich) for 4 h. Finally, a solution of the purple precipitate dissolved in dimethyl sulfoxide (DMSO) was added to a 96-well plate, and the absorbance was measured at 450 nm.

[14] = tested on: HepG2 cells; experiment: Cytotoxicity assay (cell viability); format: cell-based
Procedure: as §5

[15] = tested on: A549 cells; experiment: Cytotoxicity assay (cell viability); format: cell-based
Procedure: as §5

PBP2a, sequence (Q53707 entry or part of it): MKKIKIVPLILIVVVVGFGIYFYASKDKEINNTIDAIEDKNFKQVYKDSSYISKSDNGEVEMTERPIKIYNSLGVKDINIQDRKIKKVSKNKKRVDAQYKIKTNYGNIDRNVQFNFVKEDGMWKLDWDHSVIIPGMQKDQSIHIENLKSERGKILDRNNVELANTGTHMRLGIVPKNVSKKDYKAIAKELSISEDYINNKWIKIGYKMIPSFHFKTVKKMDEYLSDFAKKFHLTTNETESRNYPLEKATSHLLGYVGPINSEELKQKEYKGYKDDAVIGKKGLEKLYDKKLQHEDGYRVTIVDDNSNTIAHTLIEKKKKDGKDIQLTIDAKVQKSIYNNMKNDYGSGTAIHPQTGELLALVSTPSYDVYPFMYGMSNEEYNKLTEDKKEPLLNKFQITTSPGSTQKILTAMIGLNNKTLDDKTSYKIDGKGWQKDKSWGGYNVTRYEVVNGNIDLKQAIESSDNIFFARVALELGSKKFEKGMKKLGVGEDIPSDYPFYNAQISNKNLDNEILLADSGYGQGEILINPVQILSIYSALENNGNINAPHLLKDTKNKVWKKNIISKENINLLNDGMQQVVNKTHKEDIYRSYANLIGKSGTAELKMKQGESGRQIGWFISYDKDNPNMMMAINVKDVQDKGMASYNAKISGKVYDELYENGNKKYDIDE
PBP2, sequence (Q9R744 1-727): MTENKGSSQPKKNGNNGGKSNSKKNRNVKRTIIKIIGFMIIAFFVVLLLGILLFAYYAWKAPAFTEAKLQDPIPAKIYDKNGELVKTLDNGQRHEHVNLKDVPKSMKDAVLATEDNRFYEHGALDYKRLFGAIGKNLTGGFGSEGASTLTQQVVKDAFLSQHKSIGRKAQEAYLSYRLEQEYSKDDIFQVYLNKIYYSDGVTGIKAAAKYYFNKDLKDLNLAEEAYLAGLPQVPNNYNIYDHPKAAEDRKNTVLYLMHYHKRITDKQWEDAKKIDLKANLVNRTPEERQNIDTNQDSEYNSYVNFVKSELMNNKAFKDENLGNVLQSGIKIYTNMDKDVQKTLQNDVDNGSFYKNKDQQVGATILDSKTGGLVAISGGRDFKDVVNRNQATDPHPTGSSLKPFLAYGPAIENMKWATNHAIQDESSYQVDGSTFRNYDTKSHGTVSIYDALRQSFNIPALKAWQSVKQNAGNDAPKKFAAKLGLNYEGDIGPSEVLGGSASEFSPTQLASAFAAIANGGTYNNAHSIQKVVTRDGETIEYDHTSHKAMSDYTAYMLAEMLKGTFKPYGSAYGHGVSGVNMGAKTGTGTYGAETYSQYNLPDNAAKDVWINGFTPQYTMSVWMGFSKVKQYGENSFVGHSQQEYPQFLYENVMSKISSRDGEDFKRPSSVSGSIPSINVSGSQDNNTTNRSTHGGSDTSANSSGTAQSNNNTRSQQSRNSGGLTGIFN
PBP4, sequence (P72355 25-431): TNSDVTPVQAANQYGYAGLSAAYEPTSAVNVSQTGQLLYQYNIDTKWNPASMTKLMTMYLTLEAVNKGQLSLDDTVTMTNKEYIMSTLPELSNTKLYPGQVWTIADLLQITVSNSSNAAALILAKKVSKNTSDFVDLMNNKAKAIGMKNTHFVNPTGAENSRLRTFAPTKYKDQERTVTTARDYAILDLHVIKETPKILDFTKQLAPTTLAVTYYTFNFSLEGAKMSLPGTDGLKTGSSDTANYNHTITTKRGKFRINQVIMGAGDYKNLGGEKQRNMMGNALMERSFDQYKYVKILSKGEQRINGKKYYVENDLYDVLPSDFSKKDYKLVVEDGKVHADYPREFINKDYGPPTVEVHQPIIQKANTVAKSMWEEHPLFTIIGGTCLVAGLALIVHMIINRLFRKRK
PBP1, sequence (Q53725 1-744): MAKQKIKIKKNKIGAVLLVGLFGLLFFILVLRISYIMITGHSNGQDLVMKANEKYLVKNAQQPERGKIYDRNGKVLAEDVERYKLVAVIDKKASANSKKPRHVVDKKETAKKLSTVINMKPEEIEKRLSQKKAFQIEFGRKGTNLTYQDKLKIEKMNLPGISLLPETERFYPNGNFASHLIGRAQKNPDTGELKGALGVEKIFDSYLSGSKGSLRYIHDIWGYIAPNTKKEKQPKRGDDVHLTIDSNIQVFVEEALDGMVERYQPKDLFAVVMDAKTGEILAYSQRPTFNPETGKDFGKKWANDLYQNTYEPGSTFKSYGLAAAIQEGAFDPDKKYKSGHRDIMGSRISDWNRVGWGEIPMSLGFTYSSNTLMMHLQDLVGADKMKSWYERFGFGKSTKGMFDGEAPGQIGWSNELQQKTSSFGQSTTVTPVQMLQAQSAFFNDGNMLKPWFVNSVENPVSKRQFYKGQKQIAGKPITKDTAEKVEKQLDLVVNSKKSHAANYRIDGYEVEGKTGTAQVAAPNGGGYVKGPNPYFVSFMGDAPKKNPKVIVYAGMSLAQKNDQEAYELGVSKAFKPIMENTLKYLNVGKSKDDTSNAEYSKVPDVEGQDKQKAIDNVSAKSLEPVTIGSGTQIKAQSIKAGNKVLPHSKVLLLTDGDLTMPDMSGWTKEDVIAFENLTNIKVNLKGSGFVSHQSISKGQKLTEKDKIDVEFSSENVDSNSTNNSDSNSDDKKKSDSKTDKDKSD
PBP3, sequence (Q9XDB3 1-691): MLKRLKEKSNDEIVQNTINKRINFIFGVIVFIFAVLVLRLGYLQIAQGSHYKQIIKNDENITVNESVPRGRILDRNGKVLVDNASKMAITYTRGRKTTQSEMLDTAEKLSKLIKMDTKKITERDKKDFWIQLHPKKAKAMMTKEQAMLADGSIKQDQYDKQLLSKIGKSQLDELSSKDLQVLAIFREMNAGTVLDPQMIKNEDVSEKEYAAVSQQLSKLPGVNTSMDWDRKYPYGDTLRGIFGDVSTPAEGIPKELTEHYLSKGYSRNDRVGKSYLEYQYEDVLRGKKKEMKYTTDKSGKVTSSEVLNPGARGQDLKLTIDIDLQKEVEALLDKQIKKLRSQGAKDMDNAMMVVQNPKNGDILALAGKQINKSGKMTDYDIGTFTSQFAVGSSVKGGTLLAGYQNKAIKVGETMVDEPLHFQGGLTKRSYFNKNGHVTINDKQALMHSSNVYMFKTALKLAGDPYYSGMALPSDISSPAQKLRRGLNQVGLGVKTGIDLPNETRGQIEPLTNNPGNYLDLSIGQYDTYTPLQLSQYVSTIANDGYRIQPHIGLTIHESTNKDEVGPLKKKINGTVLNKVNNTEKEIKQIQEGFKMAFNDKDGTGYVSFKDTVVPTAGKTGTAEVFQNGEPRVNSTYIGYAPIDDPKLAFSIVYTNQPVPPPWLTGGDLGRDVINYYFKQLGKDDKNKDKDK

**Q.** How did the MIC [1] turn out when `C#CCO[C@@]1(NC(=O)CSc2cccc(C)c2)C(=O)N2C(C(=O)O)=C(CSc3nnnn3C)CSC21` (stereo partly drawn) [WYBQ-4] was run?
**A.** 1 mg/L (≈ 1.83 µM)

**Q.** What about the “affinity for PBP3 (bocillin competition)” value [2] of the same compound?
**A.** had an affinity

**Q.** And the IC50 [3]?
**A.** 3.66 µM

**Q.** And the “concentration that completely competed for the binding of bocillin” value ([3]; PBP2a)?
**A.** 2 µg/mL

**Q.** What about the “affinity for PBP1 (bocillin competition)” value [4] of the same compound?
**A.** had an affinity

**Q.** What about the “affinity for PBP4 (bocillin competition)” value [5] of the same compound?
**A.** had an affinity

**Q.** And the “concentration at which bocillin fluorescence disappeared completely” value [6]?
**A.** 0.25 µg/mL

**Q.** And the “bacterial load in the thighs” value [7]?
**A.** 5.21 log10 CFU/g

**Q.** What about the “bacterial load in the thighs” value [8] of the same compound?
**A.** 5.97 log10 CFU/g

**Q.** What about the hemolytic activity [9] of the same compound?
**A.** did not show hemolytic activity

**Q.** What about the time-dependent killing effect [10] of the same compound?
**A.** complete sterilization

**Q.** What about the time-dependent killing effect [11] of the same compound?
**A.** complete sterilization

**Q.** And the “Asymmetry of bacterial division (number of cells)” value [12]?
**A.** 38

**Q.** What about the “Distortion of septa (number of cells)” value [12] of the same compound?
**A.** 27

**Q.** What about the “Percentage of defective cells (asymmetry of bacterial division)” value [12] of the same compound?
**A.** 40.9 b %

**Q.** What about the “Percentage of defective cells (distortion of septa)” value [12] of the same compound?
**A.** 29.0 a %

**Q.** And the “Percentage of defective cells (thin cell walls)” value [12]?
**A.** 63.4% and 63.4 c %

**Q.** And the “Thin cell walls (number of cells)” value [12]?
**A.** 59

**Q.** What about the cell viability [13] of the same compound?
**A.** still viable

**Q.** And the cell viability ([13]; HEK-293T, 0-128 μg/mL)?
**A.** did not affect the viability

**Q.** And the cell viability [14]?
**A.** still viable

**Q.** What about the cell viability ([14]; HepG2, 0-128 μg/mL) of the same compound?
**A.** did not affect the viability

**Q.** And the cell viability [15]?
**A.** still viable

**Q.** What about the cell viability ([15]; A549, 0-128 μg/mL) of the same compound?
**A.** did not affect the viability

From PMC9603521, “WYBQ-4: a New Bactericidal Agent against Methicillin-Resistant Staphylococcus aureus” (Microbiology Spectrum, 2022)
